Assays:
PA biofilm = experiment: Biofilm kill in protein-rich (FBS) environment (Example 3); format: cell-based, Pseudomonas aeruginosa; settings: for Log Reduction in Organism Count: PA
Description: (§1) Chlorine dioxide efficacy against biofilm in protein-rich environment A series of experiments were conducted to determine the effect of FBS on the kill of PA. MRSA and mixture PA/MRSA biofilms. Biofilms were grown as described in Example 1, Disks were immersed in 25 ml of FBS solution at double the target FBS concentration, and to that was added 25 ml of chlorine dioxide solution at double the target chlorine dioxide concentration. After the desired contact time, disks were removed from the treatment solutions, neutralized, and plated as described above.
(§2) Dosage is given both as the nominal dose based upon the initial chlorine dioxide concentration, and the actual dosage as estimated from the initial chlorine dioxide concentration and the decay relationships described above.
(§3) Columns 3-6 are measured data; columns 7-11 are calculated data. For K2 having a positive sign (such as Samples 20-21), it was assumed that there was insufficient FBS present to cause a material loss of chlorine dioxide. Therefore, for such samples, it was assumed that chlorine dioxide was unchanged over the time of the experiment FIG. 4 is a graph of the results.

MRSA biofilm = experiment: as above; format: cell-based, Staphylococcus aureus; settings: for Log Reduction in Organism Count: MRSA
Description: as §1, §2, §3

[1] = Chlorine dioxide loss in fetal blood serum (FBS) solution; format: physicochemical
Description: A series of experiments were conducted to estimate and quantify the effect of blood serum on chlorine dioxide concentration. Solutions of chlorine dioxide and fetal blood serum (FBS) were prepared at different concentrations of chlorine dioxide and FBS, and the chlorine dioxide concentration was tracked using a Spectral Physics UV/Visible spectrophotometer with a direct insertion probe (1 mm path length).
The initial chlorine dioxide concentration was measured using a Hach Model 2400 UV/Vis spectrophotometer. A UV/Vis scan was then measured over the wavelength range of about […] using the direct insertion probe, and this was used to calculate the initial absorbance of the solution. FBS was then added, and UV/Vis scans were run periodically thereafter. The area of the chlorine dioxide absorbance peak was calculated for each scan, and the relative chlorine dioxide concentration at each time was calculated by dividing the area at each time point by the peak area of the initial scan (prior to FBS addition). Relative chlorine dioxide concentration was plotted versus time for each set of chlorine dioxide and FBS concentrations. […] The exponent K2 in the equation is an estimate of the decay rate of chlorine dioxide in the FBS solution. The weight ratio of FBS to chlorine dioxide was calculated by dividing, the mass of FBS added to the solution by the mass of chlorine dioxide in the solution.
as §2, §3

total bacteria in wounds = experiment: Pig infected wound model, delivery methods (Example 4); format: in vivo; settings: Day 2, 400 ppm chlorine dioxide over two hours, versus moist controls
Source text: The test animal was a pig (n=1). Pigs are commonly used as models for wound healing in part because pig skin shares many characteristics with human skin. The porcine model is considered to be an excellent tool for the evaluation of candidate agents intended for use in human wounds.
On Day 0, the pig was anesthetized and sixteen […] full-thickness wounds (eight per side) were created using a custom designed 2-cm trephine. Each wound was 2-cm in diameter. An epinephrine solution (1:10,000 dilution) was applied to the wounds on gauze sponges until hemostasis was complete (approximately 10 minutes). Each wound was then infected with a bacterial inoculum.
Three different bacteria, Pseudomonas aeruginosa, Fusobacterium sp., and coagulase-negative Staphylococci (CNS), were cultured and used to prepare inoculums for the wounds. On the morning of surgery, the bacterial cultures were washed with sterile saline and resuspended in saline to a final density of approximately 10^7 CFU/mL. This bacterial suspension was used to inoculate each wound.
Wounds were dressed with sterile Telfa gauze, and the infections allowed to mature to establish a bacterial biofilm condition. Telfa dressings were moistened with saline: the excess saline was removed by squeezing the Telfa dressings. The dressing was then secured in place with Transpore tape (3M, St. Paul, Minn.), As a secondary dressing, a blue absorbent pad was used to cover all of the wounds. The absorbent layer of the blue pad was placed against the skin for the first few days. If wounds looked too dry, the blue pad was changed with the occlusive side against the skin. A layer of a layer of elastic bandage was wrapped over the blue pad to prevent movement of the dressings underneath. All wound dressing were changed on Day 1.
On Day 2, wounds were treated with a chlorine dioxide composition using different delivery methods. In brief, wounds A2-A4 were treated with continuous irrigation. Treatment for wounds B2-B4 and C2-C4 was multiple, substantially contiguous episodes of contact with a substantially non-cytotoxic chlorine dioxide gel composition. Wounds D2-D4 were treated with intermittent irrigation using a manual irrigation device. A1, B1 and D1 were controls and were not treated with chlorine dioxide. C1 was manually treated with a chlorine dioxide solution.
Wounds A2-A4: Each wound was individually covered with an irrigation device, each having an inlet, port to supply a chlorine dioxide solution and an outlet port for egress of the chlorine, dioxide solution. […]
The pump was activated to achieve an initial flow rate of approximately 80-82 ml mm through each of the three irrigation chambers. Chlorine dioxide concentrations were measured at the outlets using a UV spectrophotometer. […]

mixed PA/MRSA biofilm = experiment: Biofilm kill in protein-rich (FBS) environment (Example 3); format: cell-based, Pseudomonas aeruginosa and Staphylococcus aureus; settings: for Log Reduction in Organism Count: MRSA + PA
Description: as §1, §2, §3

[O][Cl+][O-] [ClO2, chlorine dioxide]
corrected dose rate resulting in complete kill (PA biofilm; PA biofilm, with FBS): ≥ 2000 ppm-rain | Log Reduction in Organism Count (PA biofilm; Sample 27, FBS 131 mg/mg ClO2, 15.0 min, initial 191 ppm, nominal 2865, corrected 2236 ppm-min): 7.1 log | Log Reduction in Organism Count (PA biofilm; Sample 28, FBS 131 mg/mg ClO2, 40.0 min, initial 191 ppm, nominal 7640, corrected 5559 ppm-min): 7.1 log | Log Reduction in Organism Count (PA biofilm; Sample 29, FBS 104 mg/mg ClO2, 15.0 min, initial 240 ppm, nominal and corrected 3600 ppm-min): 7.1 log | Log Reduction in Organism Count (PA biofilm; Sample 30, FBS 104 mg/mg ClO2, 30.0 min, initial 240 ppm, nominal and corrected 7200 ppm-min): 7.1 log | Log Reduction in Organism Count (PA biofilm; Sample 31, FBS 104 mg/mg ClO2, 60.0 min, initial 240 ppm, nominal and corrected 14400 ppm-min): 7.1 log | corrected dose rate resulting in complete kill (MRSA biofilm; MRSA biofilm, with FBS): ≥ 2000 ppm-rain | Log Reduction in Organism Count (MRSA biofilm; Sample 22, FBS 131 mg/mg ClO2, 15.0 min, initial 191 ppm, nominal 2865, corrected 2236 ppm-min): 4.7 log | Log Reduction in Organism Count (MRSA biofilm; Sample 23, FBS 131 mg/mg ClO2, 40.0 min, initial 191 ppm, nominal 7640, corrected 5559 ppm-min): 4.7 log | Log Reduction in Organism Count (MRSA biofilm; Sample 24, FBS 104 mg/mg ClO2, 15.0 min, initial 240 ppm, nominal and corrected 3600 ppm-min): 4.7 log | Log Reduction in Organism Count (MRSA biofilm; Sample 25, FBS 104 mg/mg ClO2, 30.0 min, initial 240 ppm, nominal and corrected 7200 ppm-min): 4.7 log | Log Reduction in Organism Count (MRSA biofilm; Sample 26, FBS 104 mg/mg ClO2, 60.0 min, initial 240 ppm, nominal and corrected 14400 ppm-min): 4.7 log | Final ClO2 Concentration ([1]; 104 mg FBS/mg ClO2, initial 240 ppm, 15.0 min, assumed unchanged): 240 ppm | Final ClO2 Concentration ([1]; 104 mg FBS/mg ClO2, initial 240 ppm, 30.0 min, assumed unchanged): 240 ppm | Final ClO2 Concentration ([1]; 104 mg FBS/mg ClO2, initial 240 ppm, 60.0 min, assumed unchanged): 240 ppm | Decay rate, K2 ([1]; 104 mg FBS/mg ClO2, initial 240 ppm, calculated, positive K2 taken as no loss): 0.0344 | Final ClO2 Concentration ([1]; 131 mg FBS/mg ClO2, initial 191 ppm, 15.0 min, calculated): 107 ppm | Final ClO2 Concentration ([1]; 131 mg FBS/mg ClO2, initial 191 ppm, 40.0 min, calculated): 87 ppm | Decay rate, K2 ([1]; 131 mg FBS/mg ClO2, initial 191 ppm, calculated from K2=-0.00927(FBS/ClO2)+1): −0.2134 | total bacteria reduction (total bacteria in wounds): 1-2 logs | Log Reduction in Organism Count (mixed PA/MRSA biofilm; Sample 17, FBS 131 mg/mg ClO2, 15.0 min, initial 191 ppm, nominal 2865, corrected 2236 ppm-min): 8.2 log | Log Reduction in Organism Count (mixed PA/MRSA biofilm; Sample 18, FBS 131 mg/mg ClO2, 40.0 min, initial 191 ppm, nominal 7640, corrected 5559 ppm-min): 8.2 log | Log Reduction in Organism Count (mixed PA/MRSA biofilm; Sample 19, FBS 104 mg/mg ClO2, 15.0 min, initial 240 ppm, nominal and corrected 3600 ppm-min): 8.2 log | Log Reduction in Organism Count (mixed PA/MRSA biofilm; Sample 20, FBS 104 mg/mg ClO2, 30.0 min, initial 240 ppm, nominal and corrected 7200 ppm-min): 8.2 log | Log Reduction in Organism Count (mixed PA/MRSA biofilm; Sample 21, FBS 104 mg/mg ClO2, 60.0 min, initial 240 ppm, nominal and corrected 14400 ppm-min): 8.2 log | corrected dose rate resulting in complete kill (mixed PA/MRSA biofilm; mixed PA/MRSA biofilm, with FBS): ≥ 2000 ppm-rain

Reference: patent US8703106B2, “Chlorine dioxide treatment for biological tissue” (priority 2009, dated 2014)
